For series [1] the following is noted: Fe binding in CAS assay; reported previously; cited from earlier work.
Another series concerns the target BauB (Acinetobacter baumannii, UniProt Q76HK0). The series is described as follows: BauB binding by intrinsic Trp fluorescence quenching.

Consider `C[C@@H]1ON(CCc2c[nH]cn2)C(=O)[C@H]1NC(=O)c1cccc(O)c1O` [compound 1, acinetobactin], for which, in series [1], the “CAS (+/-)” value is “+”. At BauB, this compound came in with a Kd of 300 ± 100 nM.
